Molecules are shown by their SMILES. Activity calls are given as the source filed them.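 Rule for the calls: active = more than half of replicate measurements showing over 20% loss of kinase signal relative to plate controls; inconclusive = some but at most half of replicates over 20% loss; inactive = no replicate over 20% signal loss.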 Bounds are passed on as bounds.

Sequence of Glycogen synthase kinase-3 alpha (Homo sapiens) (P49840 whole entry, looked up): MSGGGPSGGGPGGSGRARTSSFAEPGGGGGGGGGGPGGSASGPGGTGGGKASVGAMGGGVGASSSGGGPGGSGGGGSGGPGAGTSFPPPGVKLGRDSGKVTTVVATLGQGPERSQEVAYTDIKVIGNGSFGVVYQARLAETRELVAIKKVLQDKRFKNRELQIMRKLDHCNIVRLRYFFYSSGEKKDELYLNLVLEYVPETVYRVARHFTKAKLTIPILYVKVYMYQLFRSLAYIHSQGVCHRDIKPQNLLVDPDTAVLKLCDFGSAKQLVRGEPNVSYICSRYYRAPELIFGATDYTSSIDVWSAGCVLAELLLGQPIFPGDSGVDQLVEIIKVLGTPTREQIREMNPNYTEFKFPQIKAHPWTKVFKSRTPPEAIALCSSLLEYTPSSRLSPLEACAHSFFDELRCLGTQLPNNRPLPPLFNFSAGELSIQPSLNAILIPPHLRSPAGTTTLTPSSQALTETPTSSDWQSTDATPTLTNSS

The experiment concerns the target Glycogen synthase kinase-3 alpha (Homo sapiens) (UniProt P49840). The experiment in a line: concentration-response blocking of human GSK3A – biochemical, luminescence, cell-free homogeneous, retest, dose response (AID 463203). The note with it: GSK-3 alpha enzyme, ADP-Glo luminescence, 60 min.
The term AC50 denotes the concentration at which the activity in the assay is half-maximal. Take `O=C(O)c1ccc2c(c1Nc1ccccc1)C(=O)c1ccccc1C2=O`: the AC50 is 18.6 µM.
As for `NC(=O)c1cn(C2OC(CO)C(O)C2O)c2ncnc(N)c12` (stereo unspecified), the AC50 was 6.52 µM.
Consider `O=C1CC(/C=C/c2ccncc2)=Nc2ccccc2N1`, for which the AC50 was 13.1 µM.
For the compound `CCn1ccc(C(=O)Nc2ccsc2C(=O)OC)n1`, the AC50 was 30.8 µM.
With `COc1ccc(C(=O)NCC(=O)N/N=C/C=C/c2ccccc2)cc1OC`, the AC50 is > 30 µM (inactive).
Regarding `CC(C)NC(=O)Nc1ccc(Br)cc1Cl`, the AC50 is > 30 µM (inactive).
As for `CN(C)C(=O)Oc1ccc2c(c1)O/C(=C\c1cccc([N+](=O)[O-])c1)C2=O`, the figure is > 30 µM (inactive); as for `Oc1ccc(/C=N/NC(=S)N/N=C/c2ccc(O)cc2)cc1`, 23.5 µM; as for `CC(C)CN(C(=O)CN1CC=C(c2ccccc2)CC1)c1c(N)n(CC(C)C)c(=O)[nH]c1=O`, > 30 µM (inactive).
Consider `COc1ccc(-c2nnc(SCC(=O)Nc3ccccc3OC)o2)cc1`, for which the AC50 is > 30 µM (inactive).
As to `S=C(NCc1ccccc1)NCc1ccc2c(c1)OCO2`, the concentration at half-maximal activity (AC50) is 14.2 µM.
As for `C/C(=N\NC(=O)c1nnn(-c2nonc2N)c1-c1cccs1)c1ccc(O)cc1`, the figure is 1.17 µM; as for `CCOC(=O)c1[nH]c(C)c(C(=O)OCCOc2cccc(C)c2)c1C`, > 30 µM (inactive).
Take `O=C1Nc2ccccc2C1(O)c1ccccc1O` (stereo unspecified): the AC50 is > 30 µM (inactive).
As for `Cc1cccc(OCC(=O)NNC(=O)c2cc3ccccc3oc2=O)c1`, the AC50 was > 30 µM (inactive).
`CCOC(=O)c1cc(CC)sc1NC(=O)COC(=O)c1ccccn1`: the AC50 was > 30 µM (inactive).
Consider `CCc1ccc(/C=N/NC(=O)c2nnn(-c3nonc3N)c2C(C)C)cc1`, for which the AC50 is > 30 µM (inactive).
As to `CC(C)NC(=O)/C(=C\c1cccc([N+](=O)[O-])c1)NC(=O)c1ccccc1`, the AC50 was > 30 µM (inactive).
Turning to `Cc1ccnc2ccc(SC(F)(F)F)cc12`, the AC50 is > 30 µM (inactive).
Regarding `COc1ccc(/C=N/NC(=O)c2nnn(-c3nonc3N)c2-c2cccs2)cc1OC`, the AC50 was 1.41 µM.
With `N#CC1=C(S)N(c2ccccc2)C(c2ccco2)NC1=O` (stereo unspecified), the AC50 was > 30 µM (inactive).
As for `CCSc1ncnc2c1sc1nc3c(cc12)COC(C)(C)C3`, the AC50 is > 30 µM (inactive).
The figure for `O=[N+]([O-])c1cc(S(=O)(=O)c2ccc(N3CCCCC3)c([N+](=O)[O-])c2)ccc1N1CCCCC1` is > 30 µM (inactive); for `C[C@H](NC(=O)c1nc[nH]c1C(=O)NC1CCN(C(=O)OC(C)(C)C)CC1)C(=O)OC(C)(C)C` it is 31.3 µM.
Consider `C/C(=N\NC(=O)c1nnn(-c2nonc2N)c1-c1ccccc1)c1cccnc1`, for which the AC50 is 18.3 µM.
Turning to `O=c1c(OC2OC(CO)C(O)C(O)C2O)c(-c2ccc(O)c(O)c2)oc2cc(O)cc(O)c12` (stereo unspecified), the AC50 is > 30 µM (inactive).
As to `CC1=[N+](C)c2ccc3ccccc3c2C1(C)C`, the AC50 was > 30 µM (inactive).
With `COc1ccccc1OCCNC(=O)C1CCN(C(C)=O)CC1`, the AC50 was > 30 µM (inactive).
Regarding `N#Cc1c(Cl)c(Cl)c2nnc(-c3ccc(Br)cc3)n2c1Cl`, the AC50 was 20.6 µM.
Take `O=C1c2cnc3nc(SCc4ccc(Cl)cc4)nn3c2CC2c3ccccc3CCN12` (stereo unspecified): the AC50 was > 30 µM (inactive).
As to `O=C(Nc1cccc(C(=O)NC2CCCCC2)c1)c1ccccc1`, the AC50 was > 30 µM (inactive).
On to `NNc1nc2sc3c(c2c(=O)[nH]1)CCc1ccccc1-3`, for which the AC50 was > 30 µM (inactive).
Take `CCOC(=O)c1cnn(Cc2ccccc2Cl)c1N`: the AC50 is > 30 µM (inactive).
As for `O=C(O)c1cn(-c2ccccc2)nc1-c1cccnc1`, the figure is > 30 µM (inactive); as for `O=C(Nc1cccc(Cl)c1N1CCOCC1)c1ccc(Br)o1`, > 30 µM (inactive); as for `CC(=O)c1sc(NC(=O)CN2C(=O)NC3(CCCC3)C2=O)nc1-c1ccccc1`, 20.7 µM.
In the case of `COc1ccc(OCc2nc(N)nc(Nc3ccccc3OC)n2)cc1`, the AC50 was > 30 µM (inactive).
Take `O=C(Nc1ccc(Cl)c([N+](=O)[O-])c1)c1ccc(NCCCN2CCOCC2)c([N+](=O)[O-])c1`: the AC50 is > 30 µM (inactive).
As to `COC(=O)c1ccc(CSc2nnc(SCc3ccc(C(=O)OC)o3)s2)o1`, the AC50 was > 30 µM (inactive).
Consider `CCCCN(CCCC)S(=O)(=O)c1ccc2oc(C(=O)N3CCOCC3)c(C)c2c1`, for which the AC50 was > 30 µM (inactive).
Consider `CCOc1ccc(N=C2NC(=O)SC2CC(=O)OC)cc1` (stereo unspecified), for which the AC50 was > 30 µM (inactive).
Take `NC(=O)c1cc([N+](=O)[O-])ccc1NCc1ccc(O)cc1`: the AC50 was 4.32 µM.
As for `COc1ccccc1N=c1oc2cc(O)ccc2cc1C(N)=O`, the AC50 was 4.68 µM.
As for `C=CCN1C(=O)/C(=C\c2cccs2)C(C(=O)OC)=C1C`, the AC50 is > 30 µM (inactive).
Regarding `Cc1sc2ncnc(N3CCC(C(=O)Nc4ccc(S(N)(=O)=O)cc4)CC3)c2c1C`, the AC50 was 28.2 µM.
As for `CC1(C)CC(=O)C2=C(C1)Nc1ccccc1[S@]2=O`, the AC50 was > 30 µM (inactive).
As for `CSc1ccc(CN2CCN(Cc3ccc([N+](=O)[O-])cc3)CC2)cc1`, the figure is > 30 µM (inactive); as for `C=CCN1C(=O)/C(=C\c2ccco2)C(C(=O)OC)=C1C`, > 30 µM (inactive).
On to `Cc1nnc(SCC(=O)N2c3ccccc3CC2C)s1` (stereo unspecified), for which the AC50 is > 30 µM (inactive).
Turning to `COc1cc(OC)cc(-c2nnc(SCc3c(F)cccc3Cl)o2)c1`, the AC50 is > 30 µM (inactive).
As for `COc1ccc(-c2c(C(C)=O)c(C)nc3sc4c(=O)[nH]nnc4c23)cc1`, the figure is 30.1 µM.
Turning to `COc1cc(/C=N/NC(=O)c2nnn(-c3nonc3N)c2-c2cccs2)ccc1O`, the AC50 is 4.37 µM.
As to `COc1ccc(C=O)cc1OS(=O)(=O)c1ccccc1[N+](=O)[O-]`, the AC50 was > 30 µM (inactive).
For `Fc1ccc(/C=N/Nc2cc(N3CCOCC3)ncn2)cc1`, the AC50 is > 30 µM (inactive).
Take `COc1cc(/C=N/c2oc(C)c(C)c2C#N)cc(Br)c1O`: the AC50 was > 30 µM (inactive).
Turning to `c1ccc2sc(-c3ccc4c(c3)OCO4)nc2c1`, the AC50 was > 30 µM (inactive).
The figure for `Cc1cc(N2CCN(c3ccccc3)CC2)n2cc(-c3ccccc3)nc2n1` is > 30 µM (inactive); for `Fc1cccc(/C=N/Nc2ccc3ccccc3n2)c1` it is > 30 µM (inactive).
For the compound `CC(C)(C)OC(=O)N1CCC(NC(=O)c2nc[nH]c2C(=O)NC2CCN(C(=O)OC(C)(C)C)CC2)CC1`, the AC50 was > 30 µM (inactive).
For the compound `Brc1ccccc1C1=Nn2c(nnc2-c2ccco2)SC1`, the AC50 is 17.5 µM.
On to `N#CC1=C2SCN(Cc3ccco3)CN2C(=O)CC1c1cccc2ccccc12` (stereo unspecified), for which the AC50 was > 30 µM (inactive).
Regarding `COc1ccccc1Nc1nc(NCCCCO)nc(N2CCCC2)n1`, the AC50 was > 30 µM (inactive).
As to `COc1ccc(CNC(=O)CN(CC2CCCO2)C(=O)CNS(=O)(=O)c2ccccc2)cc1` (stereo unspecified), the AC50 was > 30 µM (inactive).
Take `CCN1CCN(Cc2cc(OC)c(OC)cc2[N+](=O)[O-])CC1`: the AC50 was > 30 µM (inactive).
With `Cc1cc(NS(=O)(=O)c2ccc(Nc3nc(-c4ccc(O)cc4)cs3)cc2)no1`, the AC50 was 15.3 µM.
For `COc1ccccc1OCC(=O)Nc1sc2c(c1C(N)=O)CCC2`, the AC50 is > 30 µM (inactive).
As for `CCc1ccc(N2CC(C(=O)Nc3nccs3)CC2=O)cc1` (stereo unspecified), the figure is > 30 µM (inactive).
For the compound `Cc1cc(C)c(S(=O)(=O)Nc2ccnc(-c3cccnc3)n2)c(C)c1`, the AC50 is 5.52 µM.
Take `Nc1nonc1-n1nnc(C(=O)N/N=C/c2ccccc2Cl)c1-c1ccccc1`: the AC50 is > 30 µM (inactive).
Take `Cc1nc(SCC(=O)NCC2CCCO2)c2c3c(sc2n1)CCCC3` (stereo unspecified): the AC50 is > 30 µM (inactive).
In the case of `Cc1cc(C)cc(NC(=O)CSCc2nc3c(nnn3Cc3ccc(F)cc3)c(=O)[nH]2)c1`, the AC50 is > 30 µM (inactive).
With `CCOC(=O)c1nc2sc3c(c2c(=O)[nH]1)CCC(C)C3` (stereo unspecified), the AC50 was > 30 µM (inactive).
`CC(C)N=C(NC#N)SCc1ccc(F)cc1`: the AC50 is > 30 µM (inactive).
On to `O=C(NC1CCCC1)c1ccc(Cn2c(=O)[nH]c3ccsc3c2=O)cc1`, for which the AC50 is > 30 µM (inactive).
As to `Nc1nc(N)nc(-c2cc(O)ccc2O)n1`, the AC50 was 11.8 µM.
As to `Cc1c(CCC(=O)O)c(=O)oc2cc(O)ccc12`, the AC50 is > 30 µM (inactive).
The figure for `CC(OC(=O)c1cccc(N2C(=O)c3ccccc3C2=O)c1)C(=O)Nc1ccc(N(C)C)cc1` (stereo unspecified) is > 30 µM (inactive).
`Cc1ccc(NC(=O)c2cc(-n3cnnc3)ccc2Cl)cc1`: the AC50 was > 30 µM (inactive).
For `CC(=O)Nc1ccc(NS(=O)(=O)c2cccc3nonc23)cc1`, the AC50 is > 30 µM (inactive).
On to `Fc1cccc(/C=N/Nc2cc(N3CCOCC3)ncn2)c1`, for which the AC50 was > 30 µM (inactive).
The figure for `O=C1NC(=Nc2ccccc2Cl)S/C1=C\c1cccc([N+](=O)[O-])c1` is > 30 µM (inactive); for `Cc1ccc(N=Nc2c(O)[nH]c3ccc(F)cc23)cc1` it is > 30 µM (inactive); for `Cc1cc(NC(=O)c2sc(Nc3ccc(F)cc3)nc2N)no1` it is 8.04 µM.
The figure for `COC(=O)c1ccc(CSc2n[nH]c(=S)s2)o1` is > 30 µM (inactive); for `CC(=O)Nc1ccc(NC(=O)CSc2nc3[nH]ncc3c(=O)n2-c2ccccc2)cc1` it is > 30 µM (inactive); for `CCCCOC(=O)C1=C(C)Nc2ncnn2C1c1ccc(OC)c(OC)c1OC` (stereo unspecified) it is 12.4 µM.
As to `Cc1cccc(/C(N)=N/OC(=O)c2ccc3c(c2)OCO3)c1`, the half-maximal activity concentration (AC50) is 24.7 µM.
Take `Cc1ccc(S(=O)(=O)Nc2cc(Cl)c(O)c3ncccc23)cc1`: the AC50 is > 30 µM (inactive).
As for `O=c1cc[nH]c2ccc(OC(F)(F)F)cc12`, the figure is > 30 µM (inactive); as for `COc1ccc(N=c2oc3c(OC)cccc3cc2C(=O)NCc2ccco2)cc1OC`, > 30 µM (inactive); as for `CCSc1ccccc1C(=O)Nc1cccnc1`, > 30 µM (inactive).

The record behind these values is PubChem BioAssay AID463203 (Broad Institute, 2010).
